# From patent US8981114B2, “Derivatives of 1-(substituted sulfonyl)-2-aminoimidazoline as antitumor and antiproliferative agents” (OncoArendi Therapeutics Sp. z.o.o., priority 2013, dated 2015)
# Where two headings read alike, the source gives them in different places.
# Tested on: colon human tumor (HT-29) cells
# Assay: Cell growth inhibitory activity, standard MTT assay
# Format: cell-based
# Details: MTT assay after 72 hr exposure, 0.1% DMSO, read-out: IC50 range
# Experimental: Cell growth inhibitory activity of compounds of this invention was determined using a standard MTT assay. Adherent cells of colon human tumor (HT-29) sourced from ATCC (cells number: HTB-38) were treated with DMSO solutions of tested compounds with the ultimate concentration of DMSO in the test solution being 0.1%. Following the 72 hour long treatment MTT was added, and after a brief incubation the resulting formazan was dissolved in addional DMSO and the solutions were scanned using 570 nm wavelength.
IC50 [nM],IC50 (Homo sapiens) [nM],SMILES
< 100,–,NC1=N[C@@H](c2ccccc2)CN1S(=O)(=O)c1ccc2c(c1)CCN2C(=O)c1ccco1 [Example 35]
< 100,–,NC1=N[C@@H](c2ccccc2)CN1S(=O)(=O)c1ccc2c(c1)CCN2C(=O)c1cccs1 [Example 38]
100 to 500,–,CC(=O)N1CCc2cc(S(=O)(=O)N3C[C@H](c4ccccc4)N=C3N)ccc21 [Example 39]
< 100,–,CCC(=O)N1CCc2cc(S(=O)(=O)N3C[C@H](c4ccccc4)N=C3N)ccc21 [Example 40]
< 100,–,CCCC(=O)N1CCc2cc(S(=O)(=O)N3C[C@H](c4ccccc4)N=C3N)ccc21 [Example 41]
< 100,–,CC(C)C(=O)N1CCc2cc(S(=O)(=O)N3C[C@H](c4ccccc4)N=C3N)ccc21 [Example 42]
< 100,–,NC1=N[C@@H](c2ccccc2)CN1S(=O)(=O)c1ccc2c(c1)CCN2C(=O)Cc1cccs1 [Example 43]
< 100,–,NC1=N[C@@H](c2ccccc2)CN1S(=O)(=O)c1ccc2c(c1)CCN2C(=O)c1ccccc1 [Example 44]
< 100,–,CN(C)c1ccc(C(=O)N2CCc3cc(S(=O)(=O)N4C[C@H](c5ccccc5)N=C4N)ccc32)cc1 [Example 46]
< 100,–,NC1=N[C@@H](c2ccccc2)CN1S(=O)(=O)c1ccc2c(c1)CCN2C(=O)Cc1ccccc1 [Example 48]
< 100,–,COC(=O)N1CCc2cc(S(=O)(=O)N3C[C@H](c4ccccc4)N=C3N)ccc21 [Example 49]
> 500,–,CCCC(=O)N1CCc2cc(S(=O)(=O)N3C[C@@H](c4ccccc4)N=C3N)ccc21 [Example 57]

# More lines, now with the values behind:
SMILES,IC50 [nM],IC50 (Homo sapiens) [nM]
CC1Cc2cc(S(=O)(=O)N3CC(c4ccccc4)N=C3N)ccc2N1C(=O)c1ccc(N)cc1 (mixture of isomers) [Example 54],< 100,–
CC(C)[C@H]1CN(S(=O)(=O)c2ccc3c(c2)CCN3C(=O)c2ccco2)C(N)=N1 [Example 36],< 100,–
NC1=N[C@@H](C2CCCCC2)CN1S(=O)(=O)c1ccc2c(c1)CCN2C(=O)c1ccco1 [Example 37],< 100,–
CCOc1ccc(C(=O)N2CCc3cc(S(=O)(=O)N4C[C@H](c5ccccc5)N=C4N)ccc32)cc1 [Example 47],< 100,–
CC(=O)N1CCC(C(=O)N2CCc3cc(S(=O)(=O)N4C[C@H](c5ccccc5)N=C4N)ccc32)CC1 [Example 50],< 100,–
NC1=N[C@@H](c2ccccc2)CN1S(=O)(=O)c1ccc2c(c1)CCN2C(=O)C1CCCCC1 [Example 51],< 100,–
NC1=N[C@@H](c2ccccc2)CN1S(=O)(=O)c1ccc2c(c1)CCN2C(=O)c1cccc2ccccc12 [Example 52],< 100,–
NC1=N[C@@H](c2ccccc2)CN1S(=O)(=O)c1ccc2c(c1)CCN2C(=O)c1cccnc1 [Example 53],< 100,–
CC(C)NC(=S)N1CCc2cc(S(=O)(=O)N3C[C@H](c4ccccc4)N=C3N)ccc21 [Example 55],< 100,–
CCCC(=O)N1CCCc2cc(S(=O)(=O)N3C[C@H](c4ccccc4)N=C3N)ccc21 [Example 56],< 100,–
COc1ccc([C@H]2CN(S(=O)(=O)c3ccc4c(c3)CCN4C(=O)c3cccn3C)C(N)=N2)cc1 [Example 62],> 500,–
Cn1cccc1C(=O)N1CCc2cc(S(=O)(=O)N3C[C@H](c4ccccc4Cl)N=C3N)ccc21 [Example 64],< 100,–
Cc1cccc([C@H]2CN(S(=O)(=O)c3ccc4c(c3)CCN4C(=O)c3cccn3C)C(N)=N2)c1 [Example 65],100 to 500,–
NC1=N[C@@H](c2ccccc2)CN1S(=O)(=O)c1ccc2c(c1)CCN2 [Example 70],< 100,–
COCCNC(=O)N1CCc2cc(S(=O)(=O)N3CCN=C3N)ccc21 [Example 76],100 to 500,–
CCCNC(=O)N1CCc2cc(S(=O)(=O)N3C[C@H](c4ccccc4)N=C3N)ccc21 [Example 82],< 100,–
CCCNC(=O)N1CCc2cc(S(=O)(=O)N3C[C@H](c4ccc(F)cc4)N=C3N)ccc21 [Example 83],< 100,–
CCCNC(=O)N1CCc2cc(S(=O)(=O)N3C[C@H](c4ccc(OC)cc4)N=C3N)ccc21 [Example 84],100 to 500,–
CCCNC(=O)N1CCc2cc(S(=O)(=O)N3C[C@H](c4ccccc4C)N=C3N)ccc21 [Example 87],< 100,–
CCCCNC(=O)N1CCc2cc(S(=O)(=O)N3C[C@H](c4ccccc4)N=C3N)ccc21 [Example 89],< 100,–
CCCCNC(=O)N1CCc2cc(S(=O)(=O)N3C[C@H](c4cccc(Cl)c4)N=C3N)ccc21 [Example 93],< 100,–
CCCCNC(=O)N1CCc2cc(S(=O)(=O)N3C[C@H](c4ccccc4C)N=C3N)ccc21 [Example 95],< 100,–
CCCCNC(=O)N1CCc2cc(S(=O)(=O)N3C[C@H](c4ccc(Cl)cc4)N=C3N)ccc21 [Example 97],100 to 500,–
CC(C)NC(=O)N1CCc2cc(S(=O)(=O)N3C[C@H](c4ccccc4)N=C3N)ccc21 [Example 98],–,< 100
NC1=N[C@@H](c2ccccc2)CN1S(=O)(=O)c1ccc2c(c1)CCN2C(=O)NCC1CC1 [Example 100],< 100,–
CC(C)(C)CNC(=O)N1CCc2cc(S(=O)(=O)N3C[C@H](c4ccccc4)N=C3N)ccc21 [Example 102],< 100,–
